Measurements: patent publication EP0005219A1, “Arylimidazoles, their synthesis and pharmaceutical or veterinary preparations containing them” (A/S Dumex (Dumex Ltd.), priority 1978, dated 1979)
Where two headings read alike, the source gives them in different places.

Experiments:
in vivo = format: in vivo; conditions: mouse, in vivo, po, read-out: Acute toxicity LD50
mice [1] = assay: Writhing test in mice (acetic acid induced writhing), analgesic activity; format: in vivo; conditions: for ED50: Mus musculus, po, 20 min, read-out: Analgesic ED50 Writhing test; for analgesic activity compared with the compounds of the present invention: statement in words, refers to the pharmacological tests of Table 1
Description: Writhing test in mice. (SPF females of the strain NMRI/BOM, weighing 20-25 g). The test substance was administered by gavage ½ hour prior to an intraperitoneal injection of acetic acid. The number of writhing movements in 20 minutes was counted.

[2] = Ulcerogenic activity in rats; conditions: rat, in vivo, po
Description: SPF males of the strain Sprague-Dawley weighing 180-250 g were used. 5 hours after administration by gavage of the test substance the rats were killed by an overdose of ether. The stomachs were removed and opened along the greater curvature. The number of ulcers was assessed and compared to control rats.

rats [3] = assay: Randall-Selitto test in rats (analgesia-meter, brewer's yeast paw), analgesic activity; format: in vivo; conditions: Rattus norvegicus, po, read-out: Analgesic ED50 Analgesia-meter
Description: 2. Randall-Selitto test in rats. (SPF males of the strain Sprague-Dawley, weighing 90-100 g). The test was performed on the whole as described by Randall and Selitto: Arch. Int. Pharmacodyn. […] An analgesia-meter of the make Ugo Basile was used and the test substance was administered by gavage 2 hours after injection of a suspension of brewer's yeast into the rat paw.

rats [4] = assay: Test for antiinflammatory activity in rats (carrageenin paw); format: in vivo; conditions: Rattus norvegicus, po, read-out: Antiinflam-matory test ED50
Description: SPF males of the strain Sprague-Dawley, weighing ~ 150 g were used. The test was performed according to Winter et al.: Proc. Soc. […] The test substance was given by gavage 1 hour prior to injection of a carrageenin-suspension into the rat paw.

PG-synthetase = assay: Prostaglandin-synthetase inhibition test; format: biochemical; conditions: AA = Arachidonic acid
mice [5] = assay: in vivo; format: in vivo; conditions: statement in words, refers to the pharmacological data of Table 1
[6] = mice, by gavage, observation period 168 hours
[7] = mice, by gavage ½ hour prior to intraperitoneal acetic acid, writhing movements in 20 minutes
[8] = rats, by gavage 2 hours after brewer's yeast injection into the paw
[9] = rats, by gavage 1 hour prior to carrageenin injection into the paw
[10] = rats, by gavage, stomachs examined 5 hours after administration, read-out: Ulcerogenic activity ED50

Row | Compound | LD50 at 168 h (in vivo; [6]) | ED50 (mice [1]; [7]) | TD50 at 5 h [2] | LD50 at 168 h (in vivo) | ED50 (rats [3]; [8]) | ED50 (rats [4]; [9]) | Inhibition of PG-synthetase IC50 (PG-synthetase) | toxicity compared with the compounds of the present invention (mice [5]) | analgesic activity compared with the compounds of the present invention (mice [1]) | TD50 at 5 h [2, 10] | ED50 (rats [3]; 2 h) | ED50 (mice [1]) | ED50 (rats [4])
1 | COc1ccc(-c2nc(-c3ccc(F)cc3)n(CCC(=O)O)c2-c2ccc(OC)cc2)cc1 [Compound 1, 1-(2-Carboxyethyl)-2-(p-fluorphenyl)-4,5-bis(p-methoxyphenyl)imidazole, reference compound] | > 2000 mg/kg | > 200 mg/kg | – | – | – | – | – | – | – | – | – | – | –
2 | COc1ccc(-c2nc(-c3ccccc3F)[nH]c2-c2ccc(OC)cc2)cc1 [Compound 2, 2-(o-Fluorphenyl)-4,5-bis(p-methoxyphenyl)imidazole] | – | 15 mg/kg | 590 mg/kg | > 2000 mg/kg | 0.3 mg/kg | 130 mg/kg | – | – | – | – | – | – | –
3 | COc1ccc(-c2nc(-c3cccc(F)c3)[nH]c2-c2ccc(OC)cc2)cc1 [Compound 3, 2-(m-Fluorphenyl)-4,5-bis(p-methoxyphenyl)imidazole] | – | 3.2 mg/kg | 870 mg/kg | > 2000 mg/kg | 0.25 mg/kg | 38 mg/kg | – | – | – | – | – | – | –
4 | COc1ccc(-c2nc(-c3ccc(F)cc3)[nH]c2-c2ccc(OC)cc2)cc1 [Compound 4, 2-(p-Fluorphenyl)-4,5-bis(p-methoxyphenyl)imidazole] | – | 5 mg/kg | 360 mg/kg | 1900 mg/kg | 0.3 mg/kg | 14 mg/kg | 0,18 µg/10 µg AA | – | – | – | – | – | –
5 | COc1ccc(-c2nc(-c3cccc(F)c3F)[nH]c2-c2ccc(OC)cc2)cc1 [Compound 5, 2-(2,3-Difluorphenyl)-4,5-bis(p-methoxyphenyl) imidazole] | – | 4.6 mg/kg | 800 mg/kg | > 2000 mg/kg | 0.55 mg/kg | 120 mg/kg | 0,21 µg/10 µg AA | – | – | – | – | – | –
6 | COc1ccc(-c2nc(-c3ccc(F)cc3F)[nH]c2-c2ccc(OC)cc2)cc1 [Compound 6, 2-(2,4-Difluorphenyl)-4,5-bis(p-methoxyphenyl)imidazole] | – | 4 mg/kg | > 300 mg/kg | > 2000 mg/kg | 0.8 mg/kg | 47 mg/kg | 0,27 µg/10 µg AA | – | – | – | – | – | –
7 | COc1ccc(-c2nc(-c3cc(F)ccc3F)[nH]c2-c2ccc(OC)cc2)cc1 [Compound 7, 2-(2,5-Difluorphenyl)-4,5-bis(p-methoxyphenyl)imidazole] | – | 16 mg/kg | 1000 mg/kg | > 2000 mg/kg | 0.55 mg/kg | 110 mg/kg | 1,71 µg/10 µg AA | – | – | – | – | – | –
8 | COc1ccc(-c2nc(-c3c(F)cccc3F)[nH]c2-c2ccc(OC)cc2)cc1 [Compound 8, 2-(2,6-Difluorphenyl)-4,5-bis(p-methoxyphenyl)imidazole] | – | 6.8 mg/kg | > 300 mg/kg | > 2000 mg/kg | 0.55 mg/kg | 300 mg/kg | 0,13 µg/10 µg AA | – | – | – | – | – | –
9 | COc1ccc(-c2nc(-c3ccc(F)c(F)c3)[nH]c2-c2ccc(OC)cc2)cc1 [Compound 9, 2-(3,4-Difluorphenyl)-4,5-bis(p-methoxyphenyl)imidazole] | > 2000 mg/kg | 1.9 mg/kg | – | – | – | 15 mg/kg | – | – | – | – | – | – | –
10 | COc1ccc(-c2nc(-c3cc(F)cc(F)c3)[nH]c2-c2ccc(OC)cc2)cc1 [Compound 10, 2-(3,5-Difluorphenyl)-4,5-bis(p-methoxyphenyl)imidazole] | – | 10 mg/kg | 780 mg/kg | – | 0.45 mg/kg | 150 mg/kg | – | – | – | – | – | – | –
11 | COc1ccc(-c2nc(C(F)(F)F)[nH]c2-c2ccc(OC)cc2)cc1 [Compound 11, 2-Trifluormethyl-4,5-bis(p-methoxyphenyl)imidazole, reference compound] | – | 75 mg/kg | 450 mg/kg | – | – | 25 mg/kg | – | higher toxicity | weaker analgesic activity | – | – | – | –
12 | COc1ccc(-c2nc(C(C)C)[nH]c2-c2ccc(OC)cc2)cc1 [Compound 12, 2-Isopropyl-4,5-bis(p-methoxyphenyl)imidazole, reference compound] | > 2000 mg/kg | 200 mg/kg | – | – | – | – | – | – | much weaker analgesic activity | – | – | – | –
13 | COc1ccc2c(c1)c(CC(=O)O)c(C)n2C(=O)c1ccc(Cl)cc1 [Compound 13, Indomethacin, reference compound] | 21 mg/kg | – | – | – | – | – | 0,65 µg/10 µg AA | – | – | 9.7 mg/kg | 0.36 mg/kg | 8 mg/kg | 28 mg/kg
14 | COc1ccc2cc([C@H](C)C(=O)O)ccc2c1 [Compound 14, Naproxen, reference compound] | – | – | – | – | 1.6 mg/kg | 10 mg/kg | 0,49 µg/10 µg AA | – | – | 19.5 mg/kg | – | – | –
15 | CC(=O)Oc1ccccc1C(=O)O [Compound 15, Acetyl salicylic acid, reference compound] | 1700 mg/kg | – | – | – | – | – | 7,61 µg/10 µg AA | – | – | 340 mg/kg | – | 100 mg/kg | 350 mg/kg
